# Assay results published in patent US12662489B2 (Sitryx Therapeutics Limited, priority 2023, dated 2026).
# How the values were obtained:
# [1] = target: T1, MTHFD2 recombinant human enzyme (Homo sapiens, UniProt P13995); assay: MTHFD2 inhibition assay (NAD(P)H-Glo luminescence); details: for MTHFD1/MTHFD2 IC50 ratio: selectivity of MTHFD2 inhibition over MTHFD1, band
# T1 sequence (P13995 36-350): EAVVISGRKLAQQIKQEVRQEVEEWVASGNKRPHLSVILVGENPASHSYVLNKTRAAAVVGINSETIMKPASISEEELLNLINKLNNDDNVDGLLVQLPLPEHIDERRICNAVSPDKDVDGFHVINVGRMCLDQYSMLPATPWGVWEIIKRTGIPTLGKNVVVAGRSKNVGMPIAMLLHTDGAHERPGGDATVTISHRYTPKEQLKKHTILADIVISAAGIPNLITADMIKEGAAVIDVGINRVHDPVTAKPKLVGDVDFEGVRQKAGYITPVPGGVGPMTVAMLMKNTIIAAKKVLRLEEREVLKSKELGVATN
# human CD4+ T cells = assay: Human CD4+ T-cell proliferation assay (CFSE, CD3/28 beads); details: read-out: Proliferation IC50
# [2] = target: T2, MTHFD1 recombinant human enzyme (Homo sapiens, UniProt P11586); assay: MTHFD1 inhibition assay (NAD(P)H-Glo luminescence); details: MTHFD1 IC50, recombinant human enzyme 200 nM, NADP, band
# T2 sequence (P11586 2-291 limits assumed): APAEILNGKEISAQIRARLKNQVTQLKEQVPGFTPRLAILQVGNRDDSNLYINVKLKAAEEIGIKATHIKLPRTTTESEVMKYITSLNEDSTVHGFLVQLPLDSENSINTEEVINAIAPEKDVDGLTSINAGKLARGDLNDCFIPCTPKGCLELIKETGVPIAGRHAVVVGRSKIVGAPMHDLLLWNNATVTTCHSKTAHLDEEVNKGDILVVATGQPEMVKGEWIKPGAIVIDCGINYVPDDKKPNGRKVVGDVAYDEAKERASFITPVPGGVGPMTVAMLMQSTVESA
compound,measurement,setting,value
"COC[C@H]1CN(c2cc(C)c3c4c(c(=O)oc3c2C)CN(C(=O)c2ccc(C(=O)NS(=O)(=O)N3C5CCC3CC5)c(OC)c2)CC4)CCN1C [Example 226, (R)-N-((7-azabicyclo[2.2.1]heptan-7-yl)sulfonyl)-2-methoxy-4-(8-(3-(methoxymethyl)-4-methylpiperazin-1-yl)-7,10-dimethyl-5-oxo-1,3,4,5-tetrahydro-2H-chromeno[3,4-c]pyridine-3-carbonyl)benzamide]",IC50,[1],10 to 100 nM
same,MTHFD1/MTHFD2 IC50 ratio,[1],J (>30)
same,IC50,human CD4+ T cells,30 to 100 nM
same,IC50,[2],100 to 1000 nM
"[2H]C([2H])([2H])Oc1cc(C(=O)N2CCc3c(c(=O)oc4c(C)c(N5CCN(C)[C@@H](COC)C5)cc(C)c34)C2)c(F)cc1C(=O)NS(=O)(=O)N1CCCC1 [Example 225, (R)-5-fluoro-2-(methoxy-d3)-4-(8-(3-(methoxymethyl)-4-methylpiperazin-1-yl)-7,10-dimethyl-5-oxo-1,3,4,5-tetrahydro-2H-chromeno[3,4-c]pyridine-3-carbonyl)-N-(pyrrolidin-1-ylsulfonyl)benzamide]",IC50,[1],1 to 10 nM
same,MTHFD1/MTHFD2 IC50 ratio,[1],J (>30)
same,IC50,human CD4+ T cells,30 to 100 nM
same,IC50,[2],100 to 1000 nM
CCOc1c(C(=O)NS(=O)(=O)N2C3CCC2CC3)ccc(C(=O)N2CCc3c(c(=O)oc4c(C)c(N5CCN(C)[C@@H](COC)C5)cc(C)c34)C2)c1F [Example 228],IC50,[1],10 to 100 nM
same,MTHFD1/MTHFD2 IC50 ratio,[1],G (^ 3 to 9.0)
same,IC50,human CD4+ T cells,1 to 10 nM
same,IC50,[2],100 to 1000 nM
"COC[C@H]1CN(c2cc(C)c3c4c(c(=O)oc3c2C)CN(C(=O)c2cc(F)c(C(=O)NS(=O)(=O)N3CCCC3)cc2OC)CC4)CCN1C [Example 266, (R)-2-fluoro-5-methoxy-4-(8-(3-(methoxymethyl)-4-methylpiperazin-1-yl)-7,10-dimethyl-5-oxo-1,3,4,5-tetrahydro-2H-chromeno[3,4-c]pyridine-3-carbonyl)-N-(pyrrolidin-1-ylsulfonyl)benzamide]",IC50,[1],1 to 10 nM
same,MTHFD1/MTHFD2 IC50 ratio,[1],J (>30)
same,IC50,human CD4+ T cells,1000 to 5000 nM
same,IC50,[2],100 to 1000 nM
"COC[C@H]1CN(c2cc(Cl)c3c4c(c(=O)oc3c2C)CN(C(=O)c2cc(N(C)C)c(C(=O)NS(=O)(=O)N(C)C)cc2F)CC4)CCN1C [Example 260, (R)-4-(10-chloro-8-(3-(methoxymethyl)-4-methylpiperazin-1-yl)-7-methyl-5-oxo-1,3,4,5-tetrahydro-2H-chromeno[3,4-c]pyridine-3-carbonyl)-2-(dimethylamino)-N-(N,N-dimethylsulfamoyl)-5-fluorobenzamide]",IC50,[1],1 to 10 nM
same,MTHFD1/MTHFD2 IC50 ratio,[1],J (>30)
same,IC50,human CD4+ T cells,10 to 30 nM
same,IC50,[2],100 to 1000 nM
"COC[C@H]1CN(c2cc(C)c3c4c(c(=O)oc3c2C)CN(C(=O)c2cc(N(C)C)c(C(=O)NS(=O)(=O)N3CCC[C@H](OC)C3)cc2F)CC4)CCN1C [Example 281, 2-(dimethylamino)-5-fluoro-4-(8-((R)-3-(methoxymethyl)-4-methylpiperazin-1-yl)-7,10-dimethyl-5-oxo-1,3,4,5-tetrahydro-2H-chromeno[3,4-c]pyridine-3-carbonyl)-N-(((S)-3-methoxypiperidin-1-yl)sulfonyl)benzamide]",IC50,[1],10 to 100 nM
same,MTHFD1/MTHFD2 IC50 ratio,[1],H (>9.0 to 30)
same,IC50,human CD4+ T cells,1 to 10 nM
same,IC50,[2],100 to 1000 nM
"COC[C@H]1CN(c2cc(Cl)c3c4c(c(=O)oc3c2C)CN(C(=O)c2cc(F)c(C(=O)NS(=O)(=O)N3CCCC3)cc2OC)CC4)CCN1C [Example 319, (R)-4-(10-chloro-8-(3-(methoxymethyl)-4-methylpiperazin-1-yl)-7-methyl-5-oxo-1,3,4,5-tetrahydro-2H-chromeno[3,4-c]pyridine-3-carbonyl)-2-fluoro-5-methoxy-N-(pyrrolidin-1-ylsulfonyl)benzamide]",IC50,[1],10 to 100 nM
same,MTHFD1/MTHFD2 IC50 ratio,[1],J (>30)
same,IC50,human CD4+ T cells,100 to 1000 nM
same,IC50,[2],1000 to 5000 nM
"COC[C@H]1CN(c2cc(C)c3c4c(c(=O)oc3c2C)CN(C(=O)c2cc(N(C)C)c(C(=O)NS(=O)(=O)N3CC[C@H](F)C3)cc2F)CC4)CCN1C [Example 254, 2-(dimethylamino)-5-fluoro-N-(((S)-3-fluoropyrrolidin-1-yl)sulfonyl)-4-(8-((R)-3-(methoxymethyl)-4-methylpiperazin-1-yl)-7,10-dimethyl-5-oxo-1,3,4,5-tetrahydro-2H-chromeno[3,4-c]pyridine-3-carbonyl)benzamide]",IC50,[1],1 to 10 nM
same,MTHFD1/MTHFD2 IC50 ratio,[1],J (>30)
same,IC50,human CD4+ T cells,10 to 30 nM
same,IC50,[2],100 to 1000 nM
"COC[C@H]1CN(c2cc(Cl)c3c4c(c(=O)oc3c2C)CN(C(=O)c2ccc(C(=O)NS(=O)(=O)N3C5CCC3CC5)c(OC)c2)CC4)CCN1C [Example 321, (R)-N-((7-azabicyclo[2.2.1]heptan-7-yl)sulfonyl)-4-(10-chloro-8-(3-(methoxymethyl)-4-methylpiperazin-1-yl)-7-methyl-5-oxo-1,3,4,5-tetrahydro-2H-chromeno[3,4-c]pyridine-3-carbonyl)-2-methoxybenzamide]",IC50,[1],10 to 100 nM
same,MTHFD1/MTHFD2 IC50 ratio,[1],J (>30)
same,IC50,human CD4+ T cells,30 to 100 nM
same,IC50,[2],1000 to 5000 nM
"[2H]C([2H])([2H])Oc1cc(C(=O)N2CCc3c(c(=O)oc4c(C)c(N5CCN(C)[C@@H](COC)C5)cc(C)c34)C2)c(F)cc1C(=O)NS(=O)(=O)N1C2CCC1CC2 [Example 250, (R)-N-((7-azabicyclo[2.2.1]heptan-7-yl)sulfonyl)-5-fluoro-2-(methoxy-d3)-4-(8-(3-(methoxymethyl)-4-methylpiperazin-1-yl)-7,10-dimethyl-5-oxo-1,3,4,5-tetrahydro-2H-chromeno[3,4-c]pyridine-3-carbonyl)benzamide]",IC50,[1],1 to 10 nM
same,MTHFD1/MTHFD2 IC50 ratio,[1],J (>30)
same,IC50,human CD4+ T cells,30 to 100 nM
same,IC50,[2],1000 to 5000 nM
"COC[C@H]1CN(c2cc(C)c3c4c(c(=O)oc3c2C)CN(C(=O)c2ccc(C(=O)NS(=O)(=O)N(C)C3CCCC3)cc2F)CC4)CCN1C [Example 199, (R)-N-(N-cyclopentyl-N-methylsulfamoyl)-3-fluoro-4-(8-(3-(methoxymethyl)-4-methylpiperazin-1-yl)-7,10-dimethyl-5-oxo-1,3,4,5-tetrahydro-2H-chromeno[3,4-c]pyridine-3-carbonyl)benzamide]",IC50,[1],100 to 1000 nM
same,MTHFD1/MTHFD2 IC50 ratio,[1],H (>9.0 to 30)
same,IC50,human CD4+ T cells,100 to 1000 nM
same,IC50,[2],1000 to 5000 nM
"COC[C@H]1CN(c2cc(Cl)c3c4c(c(=O)oc3c2C)CN(C(=O)c2cc(N(C)C)c(C(=O)NS(=O)(=O)N(C)C)cc2Cl)CC4)CCN1C [Example 291, (R)-5-chloro-4-(10-chloro-8-(3-(methoxymethyl)-4-methylpiperazin-1-yl)-7-methyl-5-oxo-1,3,4,5-tetrahydro-2H-chromeno[3,4-c]pyridine-3-carbonyl)-2-(dimethylamino)-N-(N,N-dimethylsulfamoyl)benzamide]",IC50,[1],10 to 100 nM
same,MTHFD1/MTHFD2 IC50 ratio,[1],J (>30)
same,IC50,human CD4+ T cells,30 to 100 nM
same,IC50,[2],1000 to 5000 nM
"COC[C@H]1CN(c2cc(C)c3c4c(c(=O)oc3c2C)CN(C(=O)c2ccc(C(=O)NS(=O)(=O)N3CCCC3)c(OC(C)C)c2F)CC4)CCN1C [Example 149, (R)-3-fluoro-2-isopropoxy-4-(8-(3-(methoxymethyl)-4-methylpiperazin-1-yl)-7,10-dimethyl-5-oxo-1,3,4,5-tetrahydro-2H-chromeno[3,4-c]pyridine-3-carbonyl)-N-(pyrrolidin-1-ylsulfonyl)benzamide]",IC50,[1],1 to 10 nM
same,MTHFD1/MTHFD2 IC50 ratio,[1],F (<3)
same,IC50,human CD4+ T cells,1 to 10 nM
same,IC50,[2],10 to 100 nM
"COC[C@H]1CN(c2ccc3c4c(c(=O)oc3c2C)CN(C(=O)c2cc(N(C)C)c(C(=O)NS(=O)(=O)N3CC5CC5C3)cc2F)CC4)CCN1C (stereo partly drawn) [Example 181, N-((3-azabicyclo[3.1.0]hexan-3-yl)sulfonyl)-2-(dimethylamino)-5-fluoro-4-(8-((R)-3-(methoxymethyl)-4-methylpiperazin-1-yl)-7-methyl-5-oxo-1,3,4,5-tetrahydro-2H-chromeno[3,4-c]pyridine-3-carbonyl)benzamide]",IC50,[1],10 to 100 nM
same,MTHFD1/MTHFD2 IC50 ratio,[1],H (>9.0 to 30)
same,IC50,human CD4+ T cells,10 to 30 nM
same,IC50,[2],100 to 1000 nM
"COC[C@H]1CN(c2cc(C)c3c4c(c(=O)oc3c2C)CN(C(=O)c2ccc(C(=O)NS(=O)(=O)N3CCCC3)c(F)c2)CC4)CCN1C [Example 265, (R)-2-fluoro-4-(8-(3-(methoxymethyl)-4-methylpiperazin-1-yl)-7,10-dimethyl-5-oxo-1,3,4,5-tetrahydro-2H-chromeno[3,4-c]pyridine-3-carbonyl)-N-(pyrrolidin-1-ylsulfonyl)benzamide]",IC50,[1],1 to 10 nM
same,MTHFD1/MTHFD2 IC50 ratio,[1],J (>30)
same,IC50,human CD4+ T cells,100 to 1000 nM
same,IC50,[2],100 to 1000 nM
"COC[C@H]1CN(c2cc(Cl)c3c4c(c(=O)oc3c2C)CN(C(=O)c2cc(N(C)C)c(C(=O)NS(=O)(=O)N3C5CCC3CC5)cc2F)CC4)CCN1C [Example 316, (R)-N-((7-azabicyclo[2.2.1]heptan-7-yl)sulfonyl)-4-(10-chloro-8-(3-(methoxymethyl)-4-methylpiperazin-1-yl)-7-methyl-5-oxo-1,3,4,5-tetrahydro-2H-chromeno[3,4-c]pyridine-3-carbonyl)-2-(dimethylamino)-5-fluorobenzamide]",IC50,[1],10 to 100 nM
same,MTHFD1/MTHFD2 IC50 ratio,[1],J (>30)
same,IC50,human CD4+ T cells,30 to 100 nM
same,IC50,[2],1000 to 5000 nM
